Results reported in patent US5763404A, “Methods for using LHRH antagonists with low histamine release” (priority 1995, dated 1998).
Like-named read-outs stand apart in the source and are kept apart here. Blank lines part the entries; values can stand above or below the compound they belong to. Non-standard residues stand in square brackets, D forms with d. Residues, ends and D or L forms follow the SMILES beside them. *: point of attachment. dPhe(4-Cl) = N[C@H](Cc1ccc(Cl)cc1)C(=O)O; d2Nal = N[C@H](Cc1ccc2ccccc2c1)C(=O)O; Lys(iPr) = CC(C)NCCCC[C@H](N)C(=O)O; d3Pal = N[C@H](Cc1cccnc1)C(=O)O; Nicotinoyl = O=C(c1cccnc1)*; Picolinoyl = O=C(c1ccccn1)*

Legend:
[1] = test system: 26 days old female rats; assay: oral activity: serum LH and FSH after agonist [D-Qal^6]-LHRH; assay type: in vivo, rat; details: for LH: 2 hours before 10 ng agonist; for FSH / Serum LH: -2 hr, agonist 10 ng sc, +2 hours
Description: For the determination of duration of action, the antagonist was administered s.c. or orally to 26 days old female rats at a specific time before administration of the agonist, [D-Qal^6 ]-LHRH. The serum levels of rat luteinizing hormone (LH) and rat follicle stimulating hormone (FSH) were then measured 2 hours after the agonist administration by RIA. The oral administration was done through force-feeding with feeding tubes.

[2] = test system: rats; details: reported in ref. 16, cited from earlier work
[3] = test system: rat mast cells; assay: in vitro histamine release test; assay type: cell-based; details: for In Vitro Histamine Release ED50: rat mast cells, ± SEM
Description: The antiovulatory activity, AOA, in rats was determined as described by Humphries et al. (12). Antiovulation assays were performed by counting, on estrus, the number of ova shed by 4-day cycling rats after a single sc injection of the LH-RH analogue in corn oil was administered between 12 and 12:30 p.m. on […]. The control rats received 0.3 mL of the vehicle. The wheal test was performed by intradermally injecting 10 ug of peptide in 100 ul of saline into anaesthesized rats, measuring the ideally circular wheal response and calculating the area. The in vitro histamine release test was done as described by Karten et al. (4). A suspension of rat mast cells was added to increasing concentrations of peptide and the mixture was incubated for a few minutes followed by centrifugation to collect the histamine in the supernatant. A PIPES (piperazine-N,N'-bis[2-ethanesulfonic acid]) medium buffered at pH 7.4 containing NaCl 119 mM, KCl 5 mM, PIPES 25 mM, NaOH 40 mM, glucose 5.6 mM, CaCl2 1 mM, and 0.1% bovine serum albumin was used. This was designated as PIPES AC. Peptides were dissolved in double distilled H2 O at a concentration of 2 mg/ml and stored at -20° C. They were thawed just prior to testing, diluted in PIPES AC and prewarmed for five minutes at 37° C. Peptides studied were stable to heating at 56° C. for two hours, and to freezing and thawing.
Peritoneal cells were collected from male Sprague-Dawley rats weighing 200 to 250 gm and purchased from Harlan (Madison, Wis.). After euthanasia by CO2, the peritoneal cavity was washed with 50 ml PIPES AC medium containing 20 units of heparin. Following centrifugation at 200×g for eight minutes at 4° C., cells were washed again and finally resuspended to a concentration of 8 to 24×10^5 total leukocytes/ml in PIPES AC. This suspension contained approximately 5-10% mast cells. Washed cells were used immediately after collection and were prewarmed for five minutes at 37° C. prior to pipetting 0.25 ml aliquots into 12×75 mm polystyrene tubes containing 0.25 ml of diluted peptide. Mixtures were incubated for 15 minutes at 37° C. and the reaction stopped by centrifugation at 400×g for 15 minutes at 4° C. The cell supernatants were assayed for histamine content by the automated fluorometric assay procedure. See, Siraganian, R. P., "An automated continuous flow system for the extraction and fluorometric analysis of histamine." Anal. Biochem. 57:383 (1974); and Siraganian, R. P. and Hook, W. A., "Histamine release and assay methods for the study of human allergy," In Manual of Clinical Immunology, 3rd ed., N. R. Rose, H. Friedman, and J. L. Fahey (Eds.), Amer. Soc. for Microbiology, Washington (1986) p. 808.

[4] = test system: anaesthesized rats; assay: wheal test, intradermal injection; assay type: in vivo, rat; set-up: Wheal (wheal response): unit not given here; details: for Wheal (wheal response): Table XIV and text, unit not given
Procedure, shortened: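 Anaesthetized rats given intradermal injection of 10 ug peptide in 100 ul saline; area of the wheal calculated from its diameter.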

[5] = test system: anaesthesized rats; details: From Reference 1; cited from earlier work

Compound: [N-Ac-D-pClPhe^1,2,D-Trp^3,D-Arg^6,D-Ala^10 ]-LHRH [VIII-25]
LH ([1]; oral 30 ug): 39 ± 6 ng/mL
LH ([1]; oral 100 ug): 26 ± 7 ng/mL
FSH ([1]; oral in water 10 μg): 1794 ± 329 ng/mL
Serum LH ([1]; oral in water 10 μg): 59 ± 11 ng/mL
FSH ([1]; oral in water 30 μg): 1470 ± 190 ng/mL
Serum LH ([1]; oral in water 30 μg): 39 ± 6 ng/mL
FSH ([1]; oral in water 100 μg): 1161 ± 277 ng/mL
Serum LH ([1]; oral in water 100 μg): 26 ± 7 ng/mL
rats ovulated/total rats ([2]; oral dose 500 ug): 9/11
rats ovulated/total rats ([2]; oral dose 1000 ug): 4/11
rats ovulated/total rats ([2]; oral dose 2000 ug): 0/11

Compound: CC(=O)N[C@H](Cc1ccc2ccccc2c1)C(=O)N[C@H](Cc1ccc(Cl)cc1)C(=O)N[C@H](Cc1cccnc1)C(=O)N[C@@H](CO)C(=O)N[C@@H](CCCCNC(=O)c1ccccn1)C(=O)N[C@H](CCCCNC(=O)c1ccccn1)C(=O)N[C@@H](CC(C)C)C(=O)N[C@@H](CCCCNC(C)C)C(=O)N1CCC[C@H]1C(=O)N[C@H](C)C(N)=O (Ac-[d2Nal][dPhe(4-Cl)][d3Pal]SK(Picolinoyl)[dK](Picolinoyl)L[Lys(iPr)]P[dA]-NH2)
histamine release (in words) [3]: released no more histamine than do "super agonists" of LHRH

Compound: [N-Ac-D-2-Nal^1,D-4-F-Phe^2,D-Trp^3,D-Arg^6 ]-LHRH
In Vitro Histamine Release ED50 [3]: 0.17 µg/mL
In Vitro Histamine Release ED50 ([3]; listed as [N-Ac-D-2-Nal^1,D-pFPhe^2,D-Trp^3,D-Arg^6 ]-LHRH): about 0.17 μg/ml
In Vitro Histamine Release ED50 ([3]; listed as standard compound): 0.1 to 0.2 µg/mL
ED 50 (histamine release), starred test series ([3]; test series in which the standard compound had ED 50 0.46 instead of the usual 0.1-0.2): 0.46 µg/mL

Wheal ([4]; Table I, 10 ug peptide intradermally): 132.7 mm^2 /10
Wheal (wheal response) [4]: 132.7
histamine release (in words) [3]: released remarkably little histamine
Compound: CC(=O)N[C@H](Cc1ccc2ccccc2c1)C(=O)N[C@H](Cc1ccc(Cl)cc1)C(=O)N[C@H](Cc1cccnc1)C(=O)N[C@@H](CO)C(=O)N[C@@H](CCCCNC(=O)c1cccnc1)C(=O)N[C@H](CCCCNC(=O)c1cccnc1)C(=O)N[C@@H](CC(C)C)C(=O)N[C@@H](CCCCNC(C)C)C(=O)N1CCC[C@H]1C(=O)N[C@H](C)C(N)=O [Antide, [N-Ac-D-2-Nal^1, D-pClPhe^2, D-3-Pal^3, NicLys^5, D-NicLys^6, ILys^8, D-Ala^10]-LHRH] (Ac-[d2Nal][dPhe(4-Cl)][d3Pal]SK(Nicotinoyl)[dK](Nicotinoyl)L[Lys(iPr)]P[dA]-NH2)

Wheal (wheal response) [4]: 123.0
Compound: CC(=O)N[C@H](Cc1ccc2ccccc2c1)C(=O)N[C@H](Cc1ccc(Cl)cc1)C(=O)N[C@H](Cc1cccnc1)C(=O)N[C@@H](CO)C(=O)N[C@@H](CCCCNC(=O)c1ccccn1)C(=O)N[C@H](CCCCNC(=O)c1ccccn1)C(=O)N[C@@H](CC(C)C)C(=O)N[C@@H](CCCCNC(C)C)C(=O)N1CCC[C@H]1C(=O)N[C@H](C)C(N)=O [IBR 25147, [N-Ac-D-2-Nal^1,D-pClPhe^2,D-3-Pal^3,PicLys^5,D-PicLys^6, ILys^8,D-Ala^10]-LHRH] (Ac-[d2Nal][dPhe(4-Cl)][d3Pal]SK(Picolinoyl)[dK](Picolinoyl)L[Lys(iPr)]P[dA]-NH2)
Wheal Area [5]: 123 ± 0 mm^2 /10 μg
